Assay results published in patent US11351229B2, “Combination therapies for treating infantile spasms and other treatment resistant epilepsies” (Baylor College of Medicine, priority 2017, dated 2022).
Where two headings read alike, the source gives them in different places.

Legend:
[1] = Plasma concentration of vigabatrin alone or co-administered with (1-3)IGF-1; assay type: in vivo, rat; settings: vigabatrin 125 mg/kg, (1-3)IGF-1 20 mg/kg, rats
Procedure: FIG. 21 illustrates plasma concentration for vigabatrin (administered to rats at 125 mg/kg) when administered alone or in combination with (1-3)IGF-1 (20 mg/kg).

[2] = system: IGF-1R-PI3K-AKT and IGF-1R-Ras-ERK signaling cascades; assay: Western blots of IGF-1R signaling in neocortex (Example 9); assay type: in vivo
Procedure: Briefly, brains were quickly removed from the skull under anesthesia and the cortex dissected free from adhering tissue. It was then snap frozen on dry ice and later homogenized by sonication. Protein concentrations were determined by the BCA assay. Equal quantities of protein (10 μg) from each sample were resolved by polyacrylamide gel electrophoresis. The primary antibodies used were against: pAKT Thr308, pAkt Ser473, pS6 Ser240/244, AKT, S6, IGF-1R. Secondary antibodies were conjugated to horseradish peroxidase and visualization of immunoreactive bands was produced by enhanced chemiluminescence and then exposed to Kodak Biomax film. After digitization, band intensity was quantified with Image J Image software. Blots were also probed with antibodies to GAPDH, which served as a loading control. Band intensity was normalized to control values on the same blot.
The experiments were performed using N=5 for both control and epileptic groups. Animals were 6 weeks old and sacrificed 2 hours after treatment.
Animals (6 weeks old) were treated with 50 mg/kg of PPP or DMSO vehicle. Four hours later, they received 20 mg/kg of (1-3)IGF-1 or vehicle. Two hour later the neocortex was collected.
Vigabatrin (125 mg/kg) was injected 2 and 24 hours before collecting neocortex. Western blots from 2 animals and controls are shown in upper panel (FIG. 25A) for bar graphs n=6. For the combination study, the animals were administered vigabatrin (125/mg/kg), and (1-3)IGF-1 (20 mg/kg) was injected 30 min before collecting cortex in the combination group and the (1-3)IGF-1-only group. Controls received vehicle only. The results are illustrated in FIG. 25B.

[3] = system: epileptic spasms (TTX rat model of infantile spasms); assay type: in vivo
[4] = system: hypsarrhythmia (abnormal EEG pattern); assay: EEG analysis for hypsarrhythmia in rats with spasms; assay type: in vivo, rat; settings: VGB 325 mg/kg/day, 2 weeks; 5 rats with pattern at baseline
[5] = human, in vivo; cited from earlier work
[6] = each drug alone: VGB 250 mg/kg/day or (1-3)IGF-1 10 mg/kg/day, 2 weeks

Q: With `NCC(=O)N1CCC[C@H]1C(=O)N[C@@H](CCC(=O)O)C(=O)O` [(1-3)IGF-1, Gly-Pro-Glu] as the compound, how does the “effect of co-administration on vigabatrin pharmacokinetics (plasma concentration)” value [1] read?
A: Its value is “no discernible effect”.

Q: With `COc1cc([C@@H]2c3cc4c(cc3[C@H](O)[C@H]3COC(=O)[C@@H]23)OCO4)cc(OC)c1OC` [picropodophyllin, (5R,5aR,8aS,9R)-5-hydroxy-9-(3,4,5-trimethoxyphenyl)-5a,6,8a,9-tetrahydro-5H-[2]benzofuro[5,6-f][1,3]benzodioxol-8-one] as the compound, how does the “effect on (1-3)IGF-1 induced activation of AKT” value ([2]; 50 mg/kg PPP, 4 hours before 20 mg/kg (1-3)IGF-1, neocortex collected 2 hours later) read?
A: Its value is “blocks”.

Q: Which “spasm counts (in words)” value ([3]; VGB 325 mg/kg/day i.p., 2 weeks, vs vehicle controls) does the source give for `C=CC(N)CCC(=O)O` (stereo not shown) [vigabatrin, γ-vinyl-GABA] here?
A: Its value is “dramatic reduction in spasm counts”.

Q: What about the “effect on spasm counts (in words)” value [3, 6] of the same compound?
A: Its value is “modest effects on spasm counts”.

Q: And the “presence of spasms after treatment, all rats” value [3, 6]?
A: Its value is “continued to have spasms”.

Q: And the “effect on % animals with spasms” value ([3]; individual administration: vigabatrin 125 mg/kg/day or (1-3)IGF-1 20 mg/kg/day, 2 weeks)?
A: Its value is “no measurable effect”.

Q: What about the “effect on % animals with spasms” value ([3]; individual administration: vigabatrin 250 mg/kg/day or (1-3)IGF-1 10 mg/kg/day, 2 weeks) of the same compound?
A: The value was “no measurable effect”.

Q: What about the hypsarrhythmia after treatment [4] of the same compound?
A: Its hypsarrhythmia after treatment is “eliminated in all of them”.

Q: What about the “activation of IGF-1R signaling” value ([2]; vigabatrin 125 mg/kg, 2 and 24 hours before collecting neocortex) of the same compound?
A: Its value is “does not activate”.

Q: What about the “effect on (1-3)IGF-1-induced IGF-1R signaling” value ([2]; vigabatrin 125 mg/kg, (1-3)IGF-1 20 mg/kg 30 min before collecting cortex) of the same compound?
A: The value was “does not alter”.

Q: And the “adults with visual field loss” value [5]?
A: The value was 52%.

Q: What about the “children with visual field loss” value [5] of the same compound?
A: The value was 34%.

Q: And the “vigabatrin-treated subjects with visual field loss” value [5]?
A: The value was 44%.

Q: What does the source list for “rhIGF-1: rhIGF-1 from Peprotech; the full length growth factor”?
A: rats that became free of spasms ([3]; rhIGF-1 1 mg/kg/day, 3 weeks): One of the 5; rats that continued to have spasms after treatment ([3]; rhIGF-1 1 mg/kg/day, 3 weeks): 4 of 5; reduction of spasm counts, on average ([3]; rhIGF-1 1 mg/kg/day, 3 weeks): 40%
